Experimental data from patent US20260224524A1, “A PHARMACEUTICAL COMPOSITION TARGETING MUTANT P53 AND HER2” (DR DOZO LABORATORIES, priority 2023, published 2026).

Tested on: Human Lung Cancer Cell Line A-549
Assay: Growth inhibition (% control growth, LC50, TGI, GI50) A-549
Assay type: cell-based
Details: Homo sapiens, A549, read-out: LC50, A-549; Molar drug concentrations calculated from graph
Description: The therapeutic effect of SA1 (peak 5) and SA2 (peak 4) is evaluated against human lung cancer cell line A-549 by calculating the percentage growth inhibition, drug concentration of test compound needed to inhibit cell growth by 50% (GI50) values.
The therapeutic effect of SACC is evaluated against human lung cancer cell line A-549 by calculating the percentage growth inhibition, drug concentration of test compound needed to inhibit cell growth by 50% (GI50) values.

## COc1cccc2c1C(=O)c1c(O)c3c(c(O)c1C2=O)C[C@@](O)(C(=O)CO)C[C@@H]3O[C@H]1C[C@H](N)[C@H](O)[C@H](C)O1 [ADR, Adriamycin]
  LC50: 143 µM
